Source: patent US9748489B2, “Copolymer and organic solar cell comprising same” (LG CHEM, LTD., priority 2013, dated 2017)
In brackets after ≈: the same amount, converted by molar mass.

Assay: Solubility of each monomer in chlorobenzene at room temperature
Type: physicochemical
Description: The term “solubility of the unit” as used herein means measurement of the solubility in a solution of each unit monomer at room temperature.

Solubility: 5000 µg/mL (≈ 10.9 mM)
Structure (SMILES): Brc1ccc(-c2ccc(-c3ccc(Br)s3)c3nsnc23)s1
